Source: ChEMBL document CHEMBL1139443, “Antitumor agents. Part 230: C4'-esters of GL-331 as cytotoxic agents and DNA topoisomerase II inhibitors” (Bioorg Med Chem Lett, 2004)

Experiments:
KB [1] = test: Effective dose required for inhibition of KB-7d cell replication after 3 days of continuous treatment; type: functional; conditions: Homo sapiens, 72 h, read-out: ED50 (the source's name)
KB [2] = test: Lethal dose against KB-7d cells when treated for 30 min; NMD = not markedly different from control.; type: toxicity, cell-based; conditions: human, 0.5 h
[3] = Lethal dose against KB cells when treated for 30 min; type: toxicity, cell-based; conditions: human, read-out: LD50
KB [4] = test: Compound was evaluated for cytotoxicity against KB-7d cells at 10 uM concentration; NMD = not markedly different from control.; type: functional, cell-based; conditions: Homo sapiens
KB [5] = test: Compound was evaluated for cytotoxicity against KB cells at 10 uM concentration; type: functional; conditions: Homo sapiens
KB [6] = test: Compound was evaluated for cytotoxicity against KB-7d cells at 10 uM concentration; type: functional; conditions: Homo sapiens
[7] = Lethal dose against KB-7d cells when treated for 30 min; type: toxicity, cell-based; conditions: human, read-out: LD50

| SMILES | EC50 (KB [1]) [nM] | LD50 (KB [2]) | CC50 at 0.5 h [3] [µM] | Cytotoxicity (KB [4]) | cytotoxicity at 10 µM (KB [5]) [%] | cytotoxicity at 10 µM (KB [6]) [%] | CC50 at 0.5 h [7] [µM] |
| --- | --- | --- | --- | --- | --- | --- | --- |
| COc1cc([C@@H]2c3cc4c(cc3[C@@H](O[C@@H]3O[C@@H]5CO[C@@H](C)O[C@H]5[C@H](O)[C@H]3O)[C@H]3COC(=O)[C@H]23)OCO4)cc(OC)c1O [ETOPOSIDE] | 11000 | Not Markedly Different | 50 | Not Markedly Different | 52 | – | – |
| COc1cc([C@@H]2c3cc4c(cc3[C@@H](Nc3ccc([N+](=O)[O-])cc3)[C@H]3COC(=O)[C@H]23)OCO4)cc(OC)c1OC(C)=O | 2900 | – | > 20 | – | 28 | 60 | < 10 |
| COc1cc([C@@H]2c3cc4c(cc3[C@@H](Nc3ccc([N+](=O)[O-])cc3)[C@H]3COC(=O)[C@H]23)OCO4)cc(OC)c1O | 1500 | – | < 10 | – | 66 | 94 | < 10 |
| COc1cc([C@@H]2c3cc4c(cc3[C@@H](Nc3ccc([N+](=O)[O-])cc3)[C@H]3COC(=O)[C@H]23)OCO4)cc(OC)c1OC(=O)C(F)(F)F | 1500 | – | < 10 | – | 62 | 90 | < 10 |
| COc1cc([C@@H]2c3cc4c(cc3[C@@H](Nc3ccc([N+](=O)[O-])cc3)[C@H]3COC(=O)[C@H]23)OCO4)cc(OC)c1OC(=O)CCl | 2300 | – | > 10 | – | 43 | 46 | > 10 |
